According to paper PMC7529893, “Structural basis for substrate recognition and chemical inhibition of oncogenic MAGE ubiquitin ligases” (Nature Communications, 2020):

Target: T1, MAGE-A11:PCF11 interaction (GST-MAGE-A11 MHD and FAM-PCF11_4) (Homo sapiens, UniProt P43364)
T1 construct: GST-MAGE-A11 MHD (human MAGE-A11 MHD amino acid 218-429); made in house; host or cells: E. coli BL21(DE3)
T1 sequence (P43364 218-429): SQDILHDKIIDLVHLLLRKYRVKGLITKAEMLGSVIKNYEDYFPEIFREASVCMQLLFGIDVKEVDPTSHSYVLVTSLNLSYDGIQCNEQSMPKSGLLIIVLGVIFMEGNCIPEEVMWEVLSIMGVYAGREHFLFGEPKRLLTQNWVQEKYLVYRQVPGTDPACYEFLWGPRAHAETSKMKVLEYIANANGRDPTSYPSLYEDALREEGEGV
Assay: TR-FRET dose response test of compounds for disruption of MAGE-A11:PCF11 binding
Conditions: Dose response TR-FRET screening of nine scaffold groups against MAGE-A11:PCF11; read-out: consensus IC50
Procedure, shortened: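 Competition of compounds against binding of FAM-PCF11_4 peptide to GST-MAGE-A11 MHD, detected with Tb-anti-GST, in 50 mM Tris pH 7.5, 20 mM MgCl2, 0.1 mg/ml BSA, 1 mM DTT. 90 min at ~25 °C; 520/490 nm emission ratio (340 nm excitation) fitted for IC50.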

Row | IC50 [µM] | SMILES
1 | 69.1 | COc1ccc(C(F)(F)F)cc1CNCCCNc1ccnc2cc(C(F)(F)F)ccc12 [SJ000521064-1]
2 | 40.9 | CCc1ccc(CNCCCNc2ccnc3cc(C(F)(F)F)ccc23)cc1 [SJ000521067-1]

Second part, the molecule before the results:

Row | SMILES | IC50 [µM]
3 | Clc1ccc2c(NCCCNCc3ccc4[nH]ccc4c3)ccnc2c1 [SJ000520909-2] | 67.1
4 | Cc1cc(C)c(CNCCCNc2ccnc3cc(Cl)ccc23)c(C)c1 [SJ000520911-2] | 68.1
5 | FC(F)(F)c1ccc2c(NCCCNCc3ccc4[nH]ccc4c3)ccnc2c1 [SJ000521054-1] | 0.397
6 | Clc1ccc2c(NCCCNCc3ccc(-c4ccccc4)cc3)ccnc2c1 [SJ000523064-1] | 34.9
7 | CCOc1ccc(N(C(C)=O)C2=C(N)C(=O)c3ccccc3C2=O)cc1 [SJ000558312-2] | 65.7
8 | NC1=C(Nc2ccccc2)C(=O)c2ccccc2C1=O [SJ000562543-1] | 60.8
9 | Cc1ccccc1NC1=C(N)C(=O)c2ccccc2C1=O [SJ000562551-1] | > 70
10 | Cc1ccc(NC2=C(N)C(=O)c3ccccc3C2=O)cc1 [SJ000562618-1] | 60.6
11 | CCCCCCCCOc1ccc(NC2=C(N)C(=O)c3ccccc3C2=O)cc1 [SJ000562629-1] | 54.8
12 | NC1=C(Nc2ccc(Cl)cc2)C(=O)c2ccccc2C1=O [SJ000562630-1] | 53.8
13 | Cc1cc(C)cc(NC2=C(N)C(=O)c3ccccc3C2=O)c1 [SJ000562641-1] | 55
14 | COc1cc(NCc2ccc3nc(N)nc(N)c3c2C)cc(OC)c1OC [SJ000574313-7] | 9.46
15 | O=C1c2ccccc2NC(c2ccc(F)cc2F)N1CCCN1CCOCC1 (stereo not drawn) [SJ000795275-1] | 67.8
16 | O=C1c2ccccc2NC(c2ccc(F)c(F)c2)N1CCCN1CCOCC1 (stereo not drawn) [SJ000803757-1] | 58.4
17 | CCCOc1ccc(C2Nc3ccccc3C(=O)N2CCCN2CCOCC2)cc1 (stereo not drawn) [SJ000803758-1] | > 70
18 | CCOc1ccc(C2Nc3ccccc3C(=O)N2CCCN2CCOCC2)cc1 (stereo not drawn) [SJ000803759-1] | 67.7
19 | COc1ccc(C2Nc3ccccc3C(=O)N2CCCN2CCOCC2)cc1OC(F)F (stereo not drawn) [SJ000803760-1] | > 70
20 | Cc1cc(C)c(C2Nc3ccccc3C(=O)N2CCCN2CCOCC2)cc1C (stereo not drawn) [SJ000803761-1] | 62.3
21 | CSc1ccc(C2Nc3ccccc3C(=O)N2CCCN2CCOCC2)cc1 (stereo not drawn) [SJ000803762-1] | > 70
22 | COc1ccc2cc(C3Nc4ccccc4C(=O)N3CCCN3CCOCC3)ccc2c1 (stereo not drawn) [SJ000803763-1] | 67.4
23 | O=C1c2ccccc2NC(c2ccc(F)c(Br)c2)N1CCCN1CCOCC1 (stereo not drawn) [SJ000803764-1] | 68
24 | CN(C)c1ccc(C2Nc3ccccc3C(=O)N2CCCN2CCOCC2)cc1 (stereo not drawn) [SJ000803767-1] | > 70
25 | Cc1ccc(C2Nc3ccccc3C(=O)N2CCCN2CCOCC2)cc1 (stereo not drawn) [SJ000803768-1] | 65.9
26 | CCCn1c(=O)c2[nH]c(-c3ccccc3)nc2n(CCC)c1=O [SJ000832251-1] | > 70
27 | C=CCn1c(=O)c2c(nc(-c3ccccc3)n2C)n(C)c1=O [SJ000832270-1] | > 70

Same assay, conditions: Supplementary Data 3, 59 quinoline compounds; read-out: TR-FRET IC50

Row | IC50 [µM] | SMILES
28 | > 70 | Clc1ccc2c(NCCCCN(Cc3ccccc3)Cc3csc4ccccc34)ccnc2c1 [SJ000520446-1, Clc1ccc2c(NCCCCN(Cc3ccccc3)Cc4csc5ccccc45)ccnc2c1]
29 | > 70 | Cc1ccc(F)cc1CN(CCCCNc1ccnc2cc(Cl)ccc12)Cc1ccccc1 [SJ000520449-1, Cc1ccc(F)cc1CN(CCCCNc2ccnc3cc(Cl)ccc23)Cc4ccccc4]
30 | > 70 | FC(F)(F)Oc1cccc(CN(CCCCNc2ccnc3cc(Cl)ccc23)Cc2ccccc2)c1 [SJ000520457-1, FC(F)(F)Oc1cccc(CN(CCCCNc2ccnc3cc(Cl)ccc23)Cc4ccccc4)c1]
31 | > 70 | FC(F)(F)Oc1ccccc1CN(CCCCNc1ccnc2cc(Cl)ccc12)Cc1ccccc1 [SJ000520459-1, FC(F)(F)Oc1ccccc1CN(CCCCNc2ccnc3cc(Cl)ccc23)Cc4ccccc4]
32 | > 70 | CCCN(CCCNc1ccnc2cc(C(F)(F)F)ccc12)CCC(C)(C)C [SJ000520476-1, CCCN(CCCNc1ccnc2cc(ccc12)C(F)(F)F)CCC(C)(C)C]
33 | > 70 | CCCN(CCCNc1ccnc2cc(C(F)(F)F)ccc12)Cc1ccc(CC)cc1 [SJ000521009-2, CCCN(CCCNc1ccnc2cc(ccc12)C(F)(F)F)Cc3ccc(CC)cc3]
34 | > 70 | FC(F)(F)c1ccc2c(NCCCNCc3cc(Br)cs3)ccnc2c1 [SJ000521056-1, FC(F)(F)c1ccc2c(NCCCNCc3cc(Br)cs3)ccnc2c1]
35 | > 70 | FC(F)(F)c1ccc2c(NCCCNCc3cc4ccccc4s3)ccnc2c1 [SJ000521060-1, FC(F)(F)c1ccc2c(NCCCNCc3cc4ccccc4s3)ccnc2c1]
36 | > 70 | FC(F)(F)c1ccc2c(NCCCNCc3csc4ccccc34)ccnc2c1 [SJ000521061-1, FC(F)(F)c1ccc2c(NCCCNCc3csc4ccccc34)ccnc2c1]
37 | > 70 | CCCN(CCCNc1c2ccc(Cl)cc2nc2ccc(OC)cc12)Cc1ccc2[nH]ccc2c1 [SJ000522732-2, CCCN(CCCNc1c2ccc(Cl)cc2nc3ccc(OC)cc13)Cc4ccc5[nH]ccc5c4]
38 | 2.8 | CCCN(CCCNc1ccnc2cc(Cl)ccc12)Cc1ccc2[nH]ccc2c1 [SJ000522746-2, CCCN(CCCNc1ccnc2cc(Cl)ccc12)Cc3ccc4[nH]ccc4c3]
39 | > 70 | CCCN(CCCNc1ccnc2cc(Cl)ccc12)Cc1c(C)cc(C)cc1C [SJ000522749-1, CCCN(CCCNc1ccnc2cc(Cl)ccc12)Cc3c(C)cc(C)cc3C]
40 | > 70 | CCCN(CCCNc1ccnc2cc(Cl)ccc12)Cc1ccc(CC)cc1 [SJ000523001-1, CCCN(CCCNc1ccnc2cc(Cl)ccc12)Cc3ccc(CC)cc3]
41 | > 70 | CCCN(CCCNc1ccnc2cc(Cl)ccc12)Cc1cc(C(F)(F)F)ccc1OC [SJ000523012-1, CCCN(CCCNc1ccnc2cc(Cl)ccc12)Cc3cc(ccc3OC)C(F)(F)F]
42 | > 70 | CCCN(CCCNc1ccnc2cc(Cl)ccc12)Cc1ccc(-c2ccccc2)cc1 [SJ000523039-1, CCCN(CCCNc1ccnc2cc(Cl)ccc12)Cc3ccc(cc3)c4ccccc4]
43 | > 70 | CCCN(CCCNc1ccnc2cc(Cl)ccc12)Cc1ccc2ccccc2c1 [SJ000523040-1, CCCN(CCCNc1ccnc2cc(Cl)ccc12)Cc3ccc4ccccc4c3]
44 | > 70 | CCCN(CCCNc1ccnc2cc(C(F)(F)F)ccc12)Cc1ccccc1OC [SJ000523072-1, CCCN(CCCNc1ccnc2cc(ccc12)C(F)(F)F)Cc3ccccc3OC]
45 | 33.2 | CCCN(CCCNc1ccnc2cc(C(F)(F)F)ccc12)Cc1ccc2[nH]ccc2c1 [SJ000575171-1, CCCN(CCCNc1ccnc2cc(ccc12)C(F)(F)F)Cc3ccc4[nH]ccc4c3]

The next lines start with the molecule.

Row | SMILES | IC50 [µM]
46 | FC(F)(F)Oc1ccc(CN(CCCCNc2ccnc3cc(Cl)ccc23)Cc2ccccc2)cc1 [SJ000520451-1, FC(F)(F)Oc1ccc(CN(CCCCNc2ccnc3cc(Cl)ccc23)Cc4ccccc4)cc1] | > 70
47 | COC(=O)CCCCCNCCCNc1ccnc2cc(Cl)ccc12 [SJ000521021-1] | 31.4
48 | Clc1ccc2c(NCCCNCc3cc4ccccc4s3)ccnc2c1 [SJ000521032-1, Clc1ccc2c(NCCCNCc3cc4ccccc4s3)ccnc2c1] | > 70
49 | Clc1ccc2c(NCCCNCc3csc4ccccc34)ccnc2c1 [SJ000521033-1, Clc1ccc2c(NCCCNCc3csc4ccccc34)ccnc2c1] | > 70
50 | Fc1ccc(CN(CCCCNc2ccnc3cc(Cl)ccc23)Cc2ccccc2)cc1 [SJ000522725-1, Fc1ccc(CN(CCCCNc2ccnc3cc(Cl)ccc23)Cc4ccccc4)cc1] | > 70
51 | CCCN(CCCNc1c2ccc(Cl)cc2nc2ccc(OC)cc12)Cc1c(Cl)ccc(Cl)c1Cl [SJ000523021-1, CCCN(CCCNc1c2ccc(Cl)cc2nc3ccc(OC)cc13)Cc4c(Cl)ccc(Cl)c4Cl] | > 70
52 | Clc1cccc(-c2ccc(CNCCCNc3ccnc4cc(Cl)ccc34)o2)c1 [SJ000523069-1, Clc1cccc(c1)c2oc(CNCCCNc3ccnc4cc(Cl)ccc34)cc2] | > 70
53 | CCCCCCN(CCC)CCCNc1ccnc2cc(C(F)(F)F)ccc12 [SJ000523083-1, CCCCCCN(CCC)CCCNc1ccnc2cc(ccc12)C(F)(F)F] | > 70
54 | Clc1ccc2c(NCCCNCc3ccc[nH]3)ccnc2c1 [SJ000575192-1, Clc1ccc2c(NCCCNCc3ccc[nH]3)ccnc2c1] | 22.8
